Data on 1 molecule can be found in PMC5339874, “Fluorene-9-bisphenol is anti-oestrogenic and may cause adverse pregnancy outcomes in mice” (Nature Communications, 2017).

Structures are written as SMILES.

Series [1] relates to female CD-1 mice. Briefly: Improved anti-uterotrophic assay, daily oral gavage for 10 days beginning on PND 24. The class given is in vivo. As to conditions: BHPF at 27.8 mg kg^−1 bw d^−1. As to the method:
The animals were fed ad libitum with a basic diet from the Laboratory Animal Center of the Academy of Military Medical Sciences (Beijing, China), and drinking water was provided ad libitum. […] The volume of vehicle or chemical solutions administered was adjusted daily based on body weight measured during the dosing period according to the volume-body weight ratio of 5 ml kg^−1 bw.

Series [2] in a line: Serum BHPF levels in mice after drinking-water exposure (GC–MS). The conditions noted are these: for concentration at 10 days: female, CD-1, mouse, serum, oral, 124.35 ng l^−1 in drinking water. The class given is in vivo. The source says:
In China, college students usually undergo a physical examination before graduation. The volunteers in this study were senior students who were undergoing a physical examination in Beijing. Fifty male and 50 female healthy volunteers (mean age, 23.5±1.2 years) who habitually used plastic water bottles were randomly recruited to participate in this study in June 2015, after appropriate ethical approval was received from the Human Ethics Committee of the Peking University Peoples' Hospital. Each participant provided informed consent and volunteered to give one 10-ml random sample of blood. Fasting blood was collected at Peking University Hospital Medical Center with vacutainer blood collection device (Chengwu Yongkang Medical Products Ltd., China) between 8 and 9 h. […] The blood was collected directly into plain 10-ml glass vacutainer tubes and spun down 30 min later for serum preparation. The serum samples were stored in glass tubes at −80 °C until analysis. The samples were fortified with 5 ng of surrogate standard BHPF-d7, and the pH was adjusted to 6.5 with ammonium acetate. β-Glucuronidase/arylsulfatase (20 μl; Sigma-Aldrich, St Louis, MO) was added to the samples, and they were incubated at 37 °C for 20 h to allow deglucuronidation. […]
Mice with a maximal difference in body weight of 1 g were selected for the experiments and randomly assigned to either the treatment or control groups. […] The BHPF levels in the cooled boiled waters from Bottle A, Bottle B and the stainless steel electric water heater were determined by GC–MS. No BHPF was detected in the cooled boiled water from the stainless steel electric water heater. […] The relative uterine weight was calculated to evaluate the anti-uterotrophic activity. […] The serum BHPF levels were analysed by GC–MS using the same method as that for human serum. The gene expressions of sprr2a and sprr2b in the uteri were determined by Q-RT-PCR.

In the case of `Oc1ccc(C2(c3ccc(O)cc3)c3ccccc3-c3ccccc32)cc1` [BHPF, 9,9-bis(4-hydroxyphenyl)-fluorene], in series [1], the “anti-uterotrophic activity compared with FULV” value is reported as “close to that of FULV at 2 mg kg^−1 bw d^−1”. In addition, the “serum BHPF” value in series [2] (100 ng l^−1 BHPF group, 10 days) was “no serum BHPF was detected”. The concentration at 10 days in series [2] (serum BHPF level (mean), Bottle A group (124.35 ng l^−1 BHPF in water), after enzymatic hydrolysis) was 1.21 ± 1.11 ng/mL; in series [2] (serum BHPF levels, range, Bottle A group) it was 0.36 to 2.7 ng/mL.
